Source: US8829035B2, “Agent for treatment or prevention of diseases associated with activity of neurotrophic factors” (Sumitomo Chemical Company, Limited, priority 2009, dated 2014)

Columns and labels:
[1] = test system: middle cerebral artery occlusion/reperfusion model; assay: Middle cerebral artery occlusion/reperfusion model, infarct volume; assay type: in vivo, C57BL/6J mice; settings: mice, 90 minutes occlusion; 30 mg/kg via the caudate vein at 3, 24 and 48 hours after occlusion; brains taken 3 days after occlusion/reperfusion
Protocol: A middle cerebral artery occlusion/reperfusion model was prepared by taking 8-week male C57BL/6J mice after 12 days convention rearing, and ligating the left and external common carotid arteries, then recanalizing them after the middle cerebral artery had been occluded for a period of 90 minutes. In this model, the compounds were administered at 3, 24, and 48 hours after occlusion as 30 mg/kg via the caudate vein. The animals were decapitated 3 days after the occlusion/reperfusion, the skulls were cut open from the cerebellar side and the brain was extracted. The extracted brains were fixed with Bouin's solution (pH 3.5-4.0). […] The infarct volumes were then calculated as shown below.
Optical microscope: digital images were taken using an optical microscope (object lens×1) that was fitted with a camera (MCD-350, Olympus). […] Based on the images pasted into the page mounts, the infarct areas (S, mm^2), lateral (left) infarct areas (mm^2) and lateral (right) non-infarct areas (MR, mm^2) were measured using an image analysis system (Win ROOF v. 5.6, Mitani), and the non-infarct areas for the left-side infarcts (ML, mm^2) [lateral (left) infarct area (mm^2)−infarct area (mm^2)] were calculated.
Using the equations below, the infarct volumes (SV, mm^3), non-infarct volumes for the left-side infarcts (MLV, mm^3), and the lateral (right) non-infarct volumes (MRV, mm^3) were calculated. […]

[2] = test system: rats with streptozotocin-induced diabetes; assay: Motor nerve conduction velocity (MNCV) in sciatic nerves of rats with streptozotocin-induced diabetes; assay type: in vivo, Slc:Wistar rats; settings: 5 mL/kg of 10 mg/mL drug solution orally once per day for 4 weeks, compared to solvent administration control group
Protocol: The preventative effect of the compounds on the prolongation of latency of the motor nerve conduction velocity (MNCV) were studied in the sciatic nerves of rats with streptozotocin-induced diabetes.
The groups were structured as a non-diabetes control group, a diabetes control group, and a drug administration group. After 8 days of convention rearing, the 8-week male Slc:Wistar rats in the respective groups were given 2 mL/kg of pH 4.5, 0.75 mmol/L citrate buffer solution (non-diabetes control group), or 2 mL/kg of a solution prepared from […] of streptozotocin (chemical name: N-(methylnitrosocarbamoyl)-α-D-glucosamine; manufacturer: SIGMA) in 0.75 mmol/L citrate buffer solution (diabetes control group and drug administration group), single administration in the caudate vein. After 4 more weeks of rearing, the animals in the non-diabetes control group and the diabetes control group were given 5 mL/kg of water for injection, while the animals in the drug administration group were given 5 mL/kg of a drug solution prepared from 10 mg/mL of the drug in water for injection. Administration for all groups was orally once per day for 4 weeks. MNCV measurements were carried out 3 times for each group. […]

[3] = test system: activity of 200 ng/mL of NGF (NXF promoter-driven luciferase in PC12 cells); assay: Luciferase reporter assay (NXF promoter) in PC12 cells: potentiation of NGF activity; assay type: cell-based, rat; design: key: +: Showed relatively weak potentiation (potentiation only exhibited at 10 μM); ++: Showed potentiation; +++: Showed particularly strong potentiation (2-fold or greater potentiation of the activity of 200 ng/mL of NGF at 1 μM)
Protocol: The forward primer 5′-[…]-3′ and the reverse primer 5′-[…]-3′ were prepared as the PCR primers according to the sequence information for the NXF gene genome sequence (Accession Nos. AB054577 and NC—000085), and the PCR method was used to isolate from approximately 5 kbp upstream from the translated region of the NXF gene promoter portion to the vicinity of the transcription start site. For this, 1 μg of mouse genomic DNA (Takara) was used as the template, and the 2-step PCR reaction was carried out for 35 cycles, the conditions for which were 95° C./1 m in the denaturing step, and 68° C./8 m in the annealing and extension steps, to obtain the PCR product. The NXF promoter fragment was inserted into the SmaI site of the pGL3 Basic vector (Promega) in the upstream of luciferase gene to prepare a reporter plasmid that would express the luciferase enzyme driven by the NXF promoter.
PC12 cells (available from the ATCC) were cultured using RPMI medium (GIBCO-BRL) with 5% FCS (GIBCO-BR) and 15% horse serum (GIBCO-BRL) added, and 1 mM in sodium pyruvate (GIBCO-BRL), at 37° C. in the presence of 5% CO2. After transfection in 10^6 of these PC12 cells for 2 days with 12 μg of the above-described reporter plasmid and 1 μg of pRC/RSV vector (Invitrogen) using the Lipofectamine 2000 reagent (Invitrogen), the medium was exchanged for fresh medium containing 40 mg/L of geneticin sulfate (GIBCO), and this was cultured continuously. Culturing was continued for approximately 1 month with medium exchange of the cultured medium containing 40 mg/L of geneticin sulfate (GIBCO) every several days, with the result that multiple colonies of the obtained cells were picked up. Among these, one of the colonies that induced luciferase activity in the presence of 40 ng/mL of NGF (Wako Pure Chemicals) was selected and used for the cells to evaluate the activity of the compounds below.
These cells were set up in 96-well plates with 80% confluence, and the luciferase reporter assay was conducted using the Promega Steady Glo luciferase assay kit. The procedure was carried out overnight (approx. 16 hours) using culture medium containing the compound, and the Steady Glo substrate solution was added to the cells in half-diluted in PBS after removal of all remaining medium containing the compound. After this was allowed to stand for 30 minutes, the respective quantity of light produced was measured with a luminometer (Envision Perkin Elmer).
The activity of the compounds for evaluation was measured as the potentiation of the activity of 200 ng/mL of NGF. For the experiment control wells, the negative control well had medium containing only a final concentration of 0.1% DMSO, the positive control well had medium containing a saturation concentration of NGF. In addition, a test well was set up containing 0.1% DMSO with 200 ng/mL of NGF added corresponding to a 0 compound concentration. When its luciferase activity was taken as a standard, the relative luciferase activity could be calculated for the test wells to which the compound solution (dissolved in DMSO and prepared to have a final DMSO concentration of 0.1%) had been added in addition to the 200 ng/mL of NGF, to find the potentiation of the activity of 200 ng/mL of NGF due to that compound.

[4] = Test Example 4, same manner as Test Example 1, relative luciferase activity vs 200 ng/mL NGF alone

Structure (SMILES)	Activity (potentiation of NGF activity) [3, 4]	further results
Cc1nc2cc(-c3nc4ccccc4o3)ccc2n1C1CCOCC1 [Ex. 12, 5-(benzoxazol-2-yl)-2-methyl-1-(tetrahydropyran-4-yl)benzimidazole methanesulfonate]		infarct volume [1]: reductions in the infarct volumes were confirmed; motor nerve conduction velocity (MNCV) [2]: recovery of motor nerve conduction velocity was observed
CSCCc1nc2cc(-c3nc4ccccc4o3)ccc2n1C1CCOCC1 [Ex. 133, 5-(benzoxazol-2-yl)-2-(2-(methylthio)ethyl)-1-(tetrahydropyran-4-yl)benzimidazole]	++	
CS(=O)(=O)CCc1nc2cc(-c3nc4ccccc4o3)ccc2n1C1CCOCC1 [Ex. 134, 5-(benzoxazol-2-yl)-2-(2-(methylsulfonyl)ethyl)-1-(tetrahydropyran-4-yl)benzimidazole]	++	
CCCn1cnc2cc(-c3nc4cc(Cl)ccc4o3)ccc21 [Ex. 135, 5-(5-chlorobenzoxazol-2-yl)-1-n-propylbenzimidazole]	++	
Cc1nc2cc(-c3nc4ccccc4o3)ccc2n1-c1ccccc1 [Syn. Ex. 3, 5-(benzoxazol-2-yl)-2-methyl-1-phenylbenzimidazole]		Activity (potentiation of NGF activity) ([3]; Test Example 1, relative luciferase activity vs 200 ng/mL NGF alone, overnight (approx. 16 hours)): ++
